Measured values from patent US20240262844A1, “PYRIDINIUM SALTS AND METHODS OF USE” (UNIVERSITY OF WYOMING, priority 2023, published 2024).
Values joined by “and” are separate entries in the source; they are usually repeats but may differ in a detail not shown here. Equal entries are not always repeated. “Also recorded” adds a separate entry of the source. Structures can show the parent of a compound that is named as a salt.

Legend:
HEK293T lysates = assay: Chemoproteomic profiling of HEK293T lysates (protein-level enrichment); assay type: biochemical, Human; conditions: for proteome labeling profile, streptavidin-HRP Western blot of elution profiles: 0-100 μM probe, with and without irradiation, before digestion; for number of proteins identified (from ≥2 unique peptides) with ≥2-fold enrichment versus DMSO: about 100 μM probe, 60 min incubation, 20 min irradiation (302 nm 1a, 320 nm 1b, 440 nm 2b)
Method: In lysate tryptophan probe treatment for protein-level characterization: HEK293T cell pellets were suspended in native lysis buffer (50 mM HEPES pH 7.5, 150 mM sodium chloride (NaCl), 1.5 mM MgCl2, 1 mM DTT, 0.8% NP-40, 5% glycerol, and 1x protease inhibitors (Thermo)) at 2x the pellet volume. The samples were sonicated on ice for 30 seconds at 20% amplitude with a 2 second pulse ON and 3 second pulse OFF. Cell debris was removed by centrifugation at 20,000×g for 20 minutes at 4° C. Protein concentration was determined by bicinchoninic acid (BCA) (Pierce) and diluted down to 5 mg/mL with ChemProt buffer (50 mM HEPES pH 7.5, 150 mM NaCl, 1.5 mM MgCl2, 1 mM DTT, 0.4% NP-40, and 1x protease inhibitors (Thermo). 5 mg cell lysates were treated with 100x stocks of the tryptophan probes (pyridinium salts 1a, 1b, and 2b) to generate final concentrations (0, 1, 10, and 100 μM) in 1% DMSO. Lysates were incubated for 1 hour at 4° C. followed by photo-activation at respective wavelengths for 20 minutes at 4° C. Excess probe was removed using Sephadex G-25 PD-10 desalting columns (GE Healthcare) pre-equilibrated with 50 mM HEPES pH 7.5, 150 mM NaCl, 1.5 mM MgCl2, and 0.4% NP-40. The samples were then treated with 100 μL Neutravidin resin as a 50% slurry (Peirce). The samples were incubated overnight on a rotating apparatus at R.T. The following day, the beads were transferred to a MobiCol column (Boca Scientific), washed 3× with phosphate buffered saline (PBS) containing 0.2% SDS, washed 3x with PBS, and the enriched proteins were eluted with 2×NuPAGE lithium dodecyl sulfate (LDS) containing 10 mM DTT (Pierce) and heated for 30 minutes at 55° C. The eluent was collected and subsequently treated with 20 mM iodoacetamide (Pierce) for 30 minutes at R.T. protected from light. Samples were passed through detergent removal columns (Pierce) that were pre-equilibrated with 50 mM HEPES pH 8.0. The samples were treated with 2.5 μg Trypsin/LysC (Promega) at 37° C. for 16 hours. The following day, the sample was collected and prepped for isobaric labeling with TMT reagents (Thermo) as specified by the manufacturer.
Quantitative proteomics by two-dimensional nano liquid chromatography-tandem mass spectrometry (nLC-MS/MS): For protein-level characterization, the TMT-labeled sample were reconstituted in 0.1% formic acid (FA)/2% acetonitrile for offline high-pH reversed phase separation (RP10) using a Dionex UltiMate 3000 high-performance liquid chromatography (HPLC) system with fraction collection using Chromeleon v.6.8 (Thermo) software. Separation was achieved on a Waters Xbridge C18 3.5 μm 2.1×150 mm HPLC column (Waters) using a flow rate of 250 μL min-1 and the following ternary gradient and conditions: mobile phase A=water (HPLC grade), mobile phase B=acetonitrile (HPLC grade), and mobile phase C=200 mM ammonium acetate, pH 10. Mobile phase C is held at 10% throughout gradient. Starting conditions are 89% mobile phase A and 1% mobile phase B, ramping mobile phase B to 80% over 65 min. Fractions were collected in 96-well plates at 100 see per well. Fractions were reduced down to 12 fractions, dried, and reconstituted in 0.1% FA/2% acetonitrile for nLC-MS/MS. All data were acquired using a Orbitrap Fusion Lumos coupled to an Easy-nLC 1200 nanoflow liquid chromatograph operating at 300 nL min^−1. Peptides were cleaned up using a 1 cm online custom trap then eluted on a custom 20 cm laser pulled 75 μm column with C18 resin. Peptides were quantified using the synchronous precursor selection (SPS-MS3) or HCD method for TMT quantitation with 120k MS1 resolving power, 50 ms max injection time and 100% AGC. MS2 spectra were selected using the top ten most abundant features with a charge state between 2-6 using CID (collision induced dissociation) in the ion trap. The AGC was set to 100% with an isolation width of 0.7. MS3 was performed on the top 10 most abundant MS2 features between 400-1600 amu with a collision energy of 55%, AGC of 250%, and 50k resolution. […]

lysozyme (14.3 kDa) = molecular target: T1, lysozyme (14.3 kDa) (Gallus gallus, UniProt P00698); assay: Photochemical labeling of lysozyme (LC/MS); assay type: biochemical, chicken; conditions: 500 μM pyridinium salt 2c, 300 μM glutathione
T1 construct: Lysozyme (from chicken egg white, >40,000 units/mg of protein); purchased Sigma Aldrich; host or cells: chicken egg white
T1 sequence (P00698 19-147): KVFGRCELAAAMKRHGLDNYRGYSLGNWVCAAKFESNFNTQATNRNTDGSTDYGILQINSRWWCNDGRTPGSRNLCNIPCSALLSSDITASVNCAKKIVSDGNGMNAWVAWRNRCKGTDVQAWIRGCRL
Method: General Procedure B: Photochemical Irradiation of Peptides and Proteins: To a 2 mL Pyrex LC/MS vial (Thermo model #03-391-39) were sequentially added solutions containing the desired biomolecule, glutathione (GSH), pyridinium salt, and ammonium acetate (NH4OAc). The resulting solution was diluted to a final volume of 500 μL and then sparged using nitrogen for a minimum of 30 minutes prior to irradiation. The actively sparging solution was then placed in an EvoluChem™ PhotoRedOx Box photoreactor that was equipped with a Kessil, PR160 427 nm LED Lamp and was then irradiated (100% lamp intensity) for the designated time at room temperature while maintaining active sparging. The resultant reaction mixture was then analyzed directly by LC/MS. Analysis of labeling outcomes using LC/MS was performed either by extracted ion chromatogram intensities (method A) or by integrating the area under the peaks associated with peptide content (method B). These values were totaled, and estimated percentages were assigned according to relative intensities of peaks or ion counts.
Labeling of Lysozyme with Pyridinium Salt 2a (Lysozyme-2a Conjugate). Labeling of lysozyme (14.3 kDa) with the pyridinium salt 2a was performed by following general procedure B using the following solutions: lysozyme (27 μL, 182 μM, 10 μM final concentration), pyridinium salt 2a (200 μL, 500 μM, 200 μM final concentration), NH4+OAc (100 μL, 100 mM, pH=6.9, 20 mM final concentration), glutathione (15 μL, 10 mM, 300 μM final concentration), and water (158 μL) with a 100% intensity irradiation time of 60 minutes. The reaction mixture was analyzed directly by LC/MS using method A and was estimated to have proceeded in >95% conversion and a 10.9:1 mono:di labeled ratio and 10% glutathionylation of all unlabeled and labeled protein content was observed.
Labeling of Lysozyme with Pyridinium Salt 2b (Lysozyme-2b Conjugate). Labeling of lysozyme (14.3 kDa) with the pyridinium salt 2b was performed by following general procedure B using the following solutions: lysozyme (19 μL, 262 μM, 10 μM final concentration), 2b (181 μL, 554 μM, 200 μM final concentration), NH4OAc (50 μL, 200 mM, pH=6.9, 20 mM final concentration), glutathione (50 μL, 3 mM, 300 μM final concentration), and water (200 μL) with a 100% intensity irradiation time of 10 minutes. The reaction mixture was analyzed directly by LC/MS using method A and was estimated to have proceeded with 83% conversion. Partial oxidation at biotin obfuscated estimation of both oxidation and glutathionylation. Lysozyme-2b conjugate (retention time (Tr)=2.80-5.17 min).
Labeling of Lysozyme with Pyridinium Salt 2c (Lysozyme-2c Conjugate). Labeling of lysozyme (14.3 kDa) with the pyridinium salt 2c was performed by following general procedure B using the following solutions: lysozyme (19 μL, 262 μM, 10 μM final concentration), pyridinium salt 2c(367 μL, 680 μM, 500 μM final concentration), NH4OAc (50 μL, 200 mM, pH=6.9, 20 mM final concentration), glutathione (50 μL, 3 mM, 300 μM final concentration), and water (14 μL) with a 100% intensity irradiation time of 10 minutes. The reaction mixture was analyzed directly by LC/MS using method A and was estimated to have proceeded with 85% conversion and a 3.7:1 mono:di labeled ratio and 10% glutathionylation of all protein content was observed. Lysozyme-2c conjugate (retention time (Tr)=3.11-5.07 min).
Labeling of Lysozyme with Pyridinium Salt 2d (Lysozyme-2d Conjugate). Labeling of lysozyme (14.3 kDa) with the pyridinium salt 2d was performed by following general procedure B using the following solutions: Lysozyme (16.8 μL, 0.297 mM solution in H2O, final concentration […]), pyridinium salt 2d (91.8 μL, 1.09 mM solution in CH3CN/H2O (2:3), final concentration 200 μM), NH4OAc (50 μL, 200 mM in H2O, final concentration 20 mM, pH 6.9), glutathione (15 μL, 10 mMsolution in H2O, final concentration 300 μM), and water (326.4 μL) with a 100% intensity irradiation time of 20 minutes. […]

[1] = Water solubility of salt forms; assay type: physicochemical; conditions: trifluoroacetate salt compared to the tetrafluoroborate salt
Method: Pyridinium salt 2c was synthesized by adapting general procedure A as follows: To a flame dried round-bottom flask equipped with a stir bar was added 4-(6-methoxynaphthalen-2-yl)-2,6-dimethylpyrylium tetrafluoroborate (S2) (80 mg, 0.23 mmol), 6-((4R,5S)-5-methyl-2-oxoimidazolidin-4-yl)hexyl 1-methylhydrazine-1-carboxylate S6 (110 mg, 0.404 mmol), and ethanol (1.2 mL) and stirred for 24 hours at 60° C. The reaction mixture was then concentrated using a rotary evaporator. The resulting residue was dissolved in dichloromethane and washed with 10% fluoroboric acid (HBF4, aqueous) (2×10 mL), saturated NaBF4 (aqueous) (2×10 mL), dried over […], filtered, and concentrated using a rotary evaporator. The resulting green solid was then sonicated in hexanes followed by decanting of the supernatant. This procedure was repeated 5 times and the resulting solid was dried under vacuum to obtain the tetrafluoroborate salt of 2c as a green solid (119 mg, 76%). The tetrafluoroborate salt of 2c was further purified by HPLC using general method B to yield the trifluoroacetate (X=TFA, CF3CO2^−) salt of 2c.

Row | SMILES | proteome labeling profile, streptavidin-HRP Western blot of elution profiles (HEK293T lysates) | number of proteins identified (from ≥2 unique peptides) with ≥2-fold enrichment versus DMSO (HEK293T lysates) [proteins] | conversion (lysozyme (14.3 kDa); 10 μM lysozyme, 20 mM NH4OAc pH 6.9, 427 nm, 10 minutes, trifluoroacetate) | glutathionylation of all protein content (lysozyme (14.3 kDa); 10 minutes irradiation) [%] | water solubility [1]
1 | Cc1cc(C)[n+](N(C)C(=O)OCCCCC[C@@H]2SC[C@@H]3NC(=O)N[C@@H]32)c(C)c1 [Pyridinium salt 1a, 2,4,6-trimethyl-1-(methyl(((5-((3aS,4S,6aR)-2-oxohexahydro-1H-thieno[3,4-d]imidazol-4-yl)pentyl)oxy)carbonyl)amino)pyridin-1-ium tetrafluoroborate] | concentration and optically dependent proteome labeling profiles; also recorded: loss of signal | 185 | – | – | –
2 | Cc1cc(-c2ccccc2)cc(C)[n+]1N(C)C(=O)OCCCCC[C@@H]1SC[C@@H]2NC(=O)N[C@@H]21 [Pyridinium salt 1b, 2,6-dimethyl-1-(methyl(((5-((3aS,4S,6aR)-2-oxohexahydro-1H-thieno[3,4-d]imidazole-4-yl)pentyl)oxy)carbonyl)amino)-4-phenylpyridin-1-ium tetrafluoroborate] | concentration and optically dependent proteome labeling profiles; also recorded: dose-response profiles | 365 | – | – | –
3 | COc1ccc2cc(-c3cc(C)[n+](N(C)C(=O)OCCCCCC[C@H]4NC(=O)N[C@H]4C)c(C)c3)ccc2c1 [Pyridinium salt 2c, 4-(6-methoxynaphthalen-2-yl)-2,6-dimethyl-1-(methyl(((6-((4R,5S)-5-methyl-2-oxoimidazolidin-4-yl)hexyl)oxy)carbonyl)amino)pyridin-1-ium trifluoroacetate] | – | – | 85% and 86% | 10 | superior water solubility
